# Several values for one entry are separate records, joined by “and”; a condition that tells them apart may be missing. Identical values can stand only once.
# Experiments:
# [1] = Permeability of pH-modified Clenbuterol CPA through human skin, Franz cell; format: in vitro ADME, Mensch; details: Zelle 1-3 are replicates
# Method: Permeabilität von pH-Wort modifiziertem Clenbuterol CPA durch Humanhaut:
# Zusammensetzung der CPA's:
# Als Freigabeapparatur wurde eine Franz-Zelle verwendet. Dies ist eine übliche Methode, um die Abgabe von Arzneistoffen aus pharmazeutischen Formulierungen zu testen. Proben wurden nach 24 h bzw. 48h entnommen und der Gehalt an Clenbuterol bestimmt.
# [2] = Flux rate of Clenbuterol through the skin as a function of the skin surface pH (Fig. 9); format: in vitro ADME, Mensch
# Text: Überraschenderweise wurde nun festgestellt, daß bei einer transdermalen Applikation von Clenbuterol die Fluxrate für den Wirkstoff entscheidend verbessert werden kann, wenn der pH-Wert der Hautoberfläche auf einen Wert konstant zwischen 6,0 und 8,5 gehalten wird.
# Die Fluxrate eines Wirkstoffes durch die Haut ist definiert als Menge des Wirkstoffes pro Hautoberfläche und pro Zeiteinheit und wird üblicherweise in [µg/cm^2 . h] angegeben. In dem oben angegebenen pH-Bereich erreicht die Fluxrate für Clenbuterol ihr Maximum, während bei höheren und niederen pH-Werten die Fluxrate stark abnimmt.
# Der pH-Wert der Hautoberfläche ist beim Menschen individuell und temporär verschieden. Ein als Standard angenommener pH-Wert von […] bis 6,0 schwankt im Individualfall zwischen pH 4,5 und 8,0 und hängt von vielen unterschiedlichen Faktoren ab. Schwankungen des pH-Wertes können daneben zum einen durch das Pflaster selbst und zum anderen durch den Wirkstoff hervorgerufen werden. Wie aus der Abb. I ersichtlich ist, nimmt die Fluxrate von Clenbuterol außerhalb des angegebenen pH-Bereichs drastisch ab, so daß eine ausreichende Permeabilität der Haut für Clenbuterol nicht mehr gewährleistet ist.
# In Fig. 9 ist die Permeabilität P von Clenbuterol durch die menschliche Haut aufgetragen (Funktion A); P ist angegeben in [cm/sec]. […]
# [3] = CPA pH-Wert 3.5 (5 % Clenbuterol, 5 % Zitronensäure, 90 % Eudragit E 30 D)
# [4] = CPA pH-Wert 10.0 (5 % Clenbuterol, 5 % Na2CO3, 90 % Eudragit E 30 D)
compound,measurement,setting,value
CC(C)(C)NCC(O)c1cc(Cl)c(N)c(Cl)c1 (stereo not drawn) [Clenbuterol],Clenbuterol Diffusion nach 24 h,[1]; [3],3.48 µg/cm^2 and 0.65 µg/cm^2 and 2.64 µg/cm^2
same,Clenbuterol Diffusion nach 48 h,[1]; [3],5.52 µg/cm^2 and 1.69 µg/cm^2 and 6.04 µg/cm^2
same,Clenbuterol Diffusion nach 24 h,[1]; [4],7.8 µg/cm^2 and 11.44 µg/cm^2 and 9.84 µg/cm^2
same,Clenbuterol Diffusion nach 48 h,[1]; [4],21.7 µg/cm^2 and 27.3 µg/cm^2 and 24.2 µg/cm^2
same,Fluxrate,"[2]; at pH values higher and lower than the range 6,0 to 8,5",stark abnimmt
same,Fluxrate,"[2]; skin surface pH between 6,0 and 8,5",Maximum
